Experimental data as given in patent US20160175288A1, “MACROCYCLIC LACTONE COMPOUNDS AND METHODS FOR THEIR USE” (Elixir Medical Corporation, priority 2008, published 2016).

Assays:
[1] = tested on: MMP-9; test: cytokine inhibition in LPS-activated macrophages, ELISA (MMP-9); assay type: cell-based; settings: 10 nM
Experimental: (§1) In cell culture studies, macrophages were activated to secrete cytokines such as MMP-9 and MCP-1 by treating the cells to E Coli lippopolysaccharide (LPS). Inhibition of these cytokines upon treatment of the activated macrophages with Myolimus and rapamycin with 10 nM concentration was tested using ELISA assay.

[2] = tested on: MCP-1; test: cytokine inhibition in LPS-activated macrophages, ELISA (MCP-1); assay type: cell-based; settings: 10 nM
Experimental: as §1

[3] = tested on: human smooth muscle cell; test: in vitro human smooth muscle cell culture testing, incorporated thymidine; assay type: cell-based; settings: exposure for 8 hours, concentrations 0.0001-1 μM
Experimental: The amounts of incorporated thymidine for samples of Myolimus of varying concentrations (0.0001, 0.001, 0.01, 0.1, and 1 μM) and of rapamycin of varying concentrations (0.0001, 0.001, 0.01, 0.1, and 1 μM) were measured after exposure for 8 hours (as shown in FIG. 1). The IC50 of both Myolimus and Rapamycin was 0.1 nM indicating potent anti-proliferative properties.

[4] = in vivo; cited from earlier work
[5] = cited from earlier work

Row | Compound | production of MMP-9 [1] | production of MMP-9 ([1]; listed as myolimus) | production of MCP-1 [2] | production of MCP-1 ([2]; listed as myolimus) | IC50 [3] [nM] | bioavailability [4] | solubility in water [5]
1 | CO[C@H]1C[C@@H]2CC[C@@H](C)[C@@](O)(O2)C(=O)C(=O)N2CCCC[C@H]2C(=O)O[C@H]([C@H](C)C[C@@H]2CC[C@@H](O)[C@H](OC)C2)CC[C@H](C)/C=C(\C)[C@@H](O)[C@@H](OC)C(=O)[C@H](C)C[C@H](C)/C=C/C=C/C=C/1C [Myolimus, 32-deoxorapamycin] | reduced the production | inhibiting production | reduced the production | inhibiting the production | 0.1 | – | –
2 | CO[C@H]1C[C@@H]2CC[C@@H](C)[C@@](O)(O2)C(=O)C(=O)N2CCCC[C@H]2C(=O)O[C@H]([C@H](C)C[C@@H]2CC[C@@H](O)[C@H](OC)C2)CC(=O)[C@H](C)/C=C(\C)[C@@H](O)[C@@H](OC)C(=O)[C@H](C)C[C@H](C)/C=C/C=C/C=C/1C [Rapamycin] | increased the production | – | did not have any impact | – | 0.1 | very low and variable | only very slightly soluble
